From the supplement of paper PMC10307832

How the values were obtained:
Assay in all cases: relative viability (nuclei count vs DMSO), 5 days (fraction); higher = more cells survive
201T = test system: 201T
Outline: (§1)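 The day after seeding in 1536-well plates, lung cancer cell lines were treated by pin tool with a single drug, or with a fixed anchor-drug dose together with five library-drug doses (not always all listed) in √10 steps. After 5 days, a combined fix-and-stain solution (final 0.05% Triton X-100, 1% formaldehyde, 1 ug/ml Hoechst) was added. Nuclei counted on 4× images gave relative viability as treated counts over vehicle counts, reported as the median of duplicate plates.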

A-427 = test system: A-427
Outline: as §1

COR-L 105 = test system: COR-L 105
Outline: as §1

COR-L23 = test system: COR-L23
Outline: as §1

EKVX = test system: EKVX
Outline: as §1

HARA = test system: HARA
Outline: as §1

HCC-15 = test system: HCC-15
Outline: as §1

HCC-44 = test system: HCC-44
Outline: as §1

HCC-827 = test system: HCC-827
Outline: as §1

LCLC-103H = test system: LCLC-103H
Outline: as §1

LK-2 = test system: LK-2
Outline: as §1

NCI-H1437 = test system: NCI-H1437
Outline: as §1

NCI-H1666 = test system: NCI-H1666
Outline: as §1

NCI-H1792 = test system: NCI-H1792
Outline: as §1

NCI-H1975 = test system: NCI-H1975
Outline: as §1

NCI-H23 = test system: NCI-H23
Outline: as §1

NCI-H441 = test system: NCI-H441
Outline: as §1

NCI-H520 = test system: NCI-H520
Outline: as §1

NCI-H522 = test system: NCI-H522
Outline: as §1

NCI-H650 = test system: NCI-H650
Outline: as §1

NCI-H838 = test system: NCI-H838
Outline: as §1

SK-MES-1 = test system: SK-MES-1
Outline: as §1

SW 900 = test system: SW 900
Outline: as §1

Compound `CC(C)Oc1cc(Nc2nc(N[C@@H](C)c3ccc(F)cn3)ncc2Cl)n[nH]1` [AZ23] + CC(=O)c1c(C)c2cnc(Nc3ccc(N4CCNCC4)cn3)nc2n(C2CCCC2)c1=O [Palbociclib] (partner 0.5 µM) has a relative viability (201T; first compound 0.01 µM) of 0.359, a relative viability (201T; first compound 0.03162 µM) of 0.38 and a relative viability (201T; first compound 0.3162 µM) of 0.372. For the same compound, the relative viability (A-427; first compound 0.01 µM) was 0.459, the relative viability (A-427; first compound 0.03162 µM) was 0.524 and the relative viability (A-427; first compound 0.3162 µM) was 0.586. It also gave a relative viability (COR-L 105; first compound 0.01 µM) of 0.53, a relative viability (COR-L 105; first compound 0.03162 µM) of 0.463 and a relative viability (COR-L 105; first compound 0.3162 µM) of 0.396. The relative viability (COR-L23; first compound 0.01 µM) was 0.239, the relative viability (COR-L23; first compound 0.03162 µM) was 0.301 and the relative viability (COR-L23; first compound 0.3162 µM) was 0.254. For the same compound, the relative viability (EKVX; first compound 0.01 µM) was 0.392, the relative viability (EKVX; first compound 0.03162 µM) was 0.414 and the relative viability (EKVX; first compound 0.3162 µM) was 0.358. It also gave a relative viability (HARA; first compound 0.01 µM) of 0.254, a relative viability (HARA; first compound 0.03162 µM) of 0.156 and a relative viability (HARA; first compound 0.3162 µM) of 0.213. It also gave a relative viability (HCC-15; first compound 0.01 µM) of 0.881, a relative viability (HCC-15; first compound 0.03162 µM) of 0.757 and a relative viability (HCC-15; first compound 0.3162 µM) of 0.799. It also gave a relative viability (HCC-44; first compound 0.01 µM) of 0.982, a relative viability (HCC-44; first compound 0.03162 µM) of 0.994 and a relative viability (HCC-44; first compound 0.3162 µM) of 0.93. For the same compound, the relative viability (HCC-827; first compound 0.01 µM) was 0.47, the relative viability (HCC-827; first compound 0.03162 µM) was 0.535 and the relative viability (HCC-827; first compound 0.3162 µM) was 0.471. It also gave a relative viability (LCLC-103H; first compound 0.01 µM) of 0.485, a relative viability (LCLC-103H; first compound 0.03162 µM) of 0.421 and a relative viability (LCLC-103H; first compound 0.3162 µM) of 0.503. It also gave a relative viability (LK-2; first compound 0.03162 µM) of 0.544, a relative viability (LK-2; first compound 0.3162 µM) of 0.678 and a relative viability (NCI-H1437; first compound 0.01 µM) of 0.304. For the same compound, the relative viability (NCI-H1437; first compound 0.03162 µM) was 0.324, the relative viability (NCI-H1437; first compound 0.3162 µM) was 0.335 and the relative viability (NCI-H1666; first compound 0.01 µM) was 0.673. For the same compound, the relative viability (NCI-H1666; first compound 0.03162 µM) was 0.647, the relative viability (NCI-H1666; first compound 0.3162 µM) was 0.652 and the relative viability (NCI-H1792; first compound 0.01 µM) was 0.737. For the same compound, the relative viability (NCI-H1792; first compound 0.03162 µM) was 0.617, the relative viability (NCI-H1792; first compound 0.3162 µM) was 0.645 and the relative viability (NCI-H1975; first compound 0.01 µM) was 0.534. For the same compound, the relative viability (NCI-H1975; first compound 0.03162 µM) was 0.703, the relative viability (NCI-H1975; first compound 0.3162 µM) was 0.591 and the relative viability (NCI-H23; first compound 0.03162 µM) was 0.548. For the same compound, the relative viability (NCI-H23; first compound 0.3162 µM) was 0.512, the relative viability (NCI-H441; first compound 0.01 µM) was 0.199 and the relative viability (NCI-H441; first compound 0.03162 µM) was 0.198. The relative viability (NCI-H441; first compound 0.3162 µM) was 0.202, the relative viability (NCI-H520; first compound 0.01 µM) was 0.236 and the relative viability (NCI-H520; first compound 0.03162 µM) was 0.193. It also gave a relative viability (NCI-H520; first compound 0.3162 µM) of 0.177, a relative viability (NCI-H522; first compound 0.01 µM) of 1.2 and a relative viability (NCI-H522; first compound 0.03162 µM) of 1.01. For the same compound, the relative viability (NCI-H522; first compound 0.3162 µM) was 0.795, the relative viability (NCI-H650; first compound 0.01 µM) was 0.352 and the relative viability (NCI-H650; first compound 0.03162 µM) was 0.309. It also gave a relative viability (NCI-H650; first compound 0.3162 µM) of 0.301, a relative viability (NCI-H838; first compound 0.01 µM) of 0.227 and a relative viability (NCI-H838; first compound 0.03162 µM) of 0.23. The relative viability (NCI-H838; first compound 0.3162 µM) was 0.247, the relative viability (SK-MES-1; first compound 0.03162 µM) was 0.291 and the relative viability (SK-MES-1; first compound 0.3162 µM) was 0.328. The relative viability (SW 900; first compound 0.01 µM) was 0.653 and the relative viability (SW 900; first compound 0.3162 µM) was 0.501.
